The values below come from paper PMC8198714, “New Coumarin Derivatives as Cholinergic and Cannabinoid System Modulators” (Molecules, 2021).

Assay [1] addresses T1, human recombinant AChE (hAChE) (Homo sapiens, UniProt P22303).
T1 construct: purchased Sigma-Aldrich, Merck group, Milan, Italy
The assay is described as follows: Inhibition of human AChE, Ellman's method. The format is biochemical. The note with it: for inhibition at 40 µM: [I] = 40 µM, read-out: hAChE % Inhibition (±SEM); for IC50: human recombinant AChE. Here is the method: (§1) The capacity of 2–7 to inhibit human ChE activity was assessed using the Ellman’s method. Initial rate assays were performed at 37 °C with a V-530 double beam spectrophotometer (Jasco Corporation, Cremella (LC), Italy city, state/prov abbrev if USA/Canada, country). […] AChE stock solution was prepared by dissolving human recombinant AChE lyophilized powder (Sigma-Aldrich, Merck group, Milan, Italy) in 0.1 M phosphate buffer at pH 8.0 containing 0.1% Triton X-100. Stock solution of BuChE was prepared by diluting commercial stock solution of BuChE from human serum (Sigma) in an aqueous solution of gelatin (0.2%) in order to have a final activity comprised between 0.11–0.15 ΔAbs/min. Stock solutions of inhibitors (1–2 mM) were prepared in methanol and diluted in methanol. […] Incubation times were: 60 min for 2 and 90 min for 3 and 4 on hAChE assay, and 45 min for 2 and 60 min for 3 and 4 on hBuChE assay, as assessed on the preliminary determination of the carbamoylation rate. Blank solutions containing all components except the enzyme were prepared in order to account for the non-enzymatic hydrolysis of the substrate. The reaction rates obtained in the absence and presence of inhibitor were compared and the percent inhibition due to the presence of inhibitor was calculated. […] Two independent experiments were performed for the determination of each IC50 value or for the calculation of the % of inhibition where the IC50 value could not be determined because of low inhibitory activity.
(In general: In Ellman's method for cholinesterases, released thiocholine reacts with DTNB.)

Assay [2] deals with T2, BuChE from human serum (hBuChE) (Homo sapiens, UniProt P06276).
T2 construct: commercial stock solution of BuChE from human serum (Sigma); purchased Sigma; host or cells: human serum
T2 sequence (P06276 29-602): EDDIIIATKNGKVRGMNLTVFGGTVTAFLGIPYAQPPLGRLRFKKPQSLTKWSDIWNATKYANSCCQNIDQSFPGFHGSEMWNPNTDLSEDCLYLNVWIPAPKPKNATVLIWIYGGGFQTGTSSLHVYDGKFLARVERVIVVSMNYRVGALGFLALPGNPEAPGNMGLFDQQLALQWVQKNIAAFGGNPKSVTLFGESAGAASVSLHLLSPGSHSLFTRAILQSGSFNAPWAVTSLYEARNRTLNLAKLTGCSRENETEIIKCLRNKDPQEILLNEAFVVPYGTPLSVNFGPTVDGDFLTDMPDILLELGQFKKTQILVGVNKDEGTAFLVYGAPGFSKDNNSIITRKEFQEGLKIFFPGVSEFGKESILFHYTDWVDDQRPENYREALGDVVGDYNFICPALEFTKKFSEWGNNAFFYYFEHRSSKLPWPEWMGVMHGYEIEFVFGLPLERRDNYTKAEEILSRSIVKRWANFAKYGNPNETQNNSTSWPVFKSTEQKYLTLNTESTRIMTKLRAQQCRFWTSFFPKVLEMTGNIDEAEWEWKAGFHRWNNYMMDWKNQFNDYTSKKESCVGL
The experiment in a line: Inhibition of human BuChE, Ellman's method. Type of assay: biochemical. The settings on record: for IC50: BuChE from human serum. Here is the method: as §1

Assay [3] has as its target T3, human recombinant CB1 receptor (Homo sapiens, UniProt P21554).
T3 construct: purchased Perkin Elmer, Milan, Italy; host or cells: HEK-293
The assay is described as follows: Competition binding assay with [3H]-CP-55,940 at CB1. The settings on record: for Ki: [3H]-CP55940 displacement, HEK-293 membranes, read-out: Ki on CB1 (m ± sd); for % Displacement at max tested on CB1 (m ± sd): max tested concentration 10 µM, [3H]-CP55940. Here is the method:
(§2) Competition binding assay for CB1 and CB2 receptors was performed as previously reported. […] All compounds were tested following the procedure described by the manufacturer (Perkin Elmer, Milan, Italy).

For assay [4], the target named is T4, human recombinant CB2 receptor (Homo sapiens, UniProt P34972).
T4 construct: purchased Perkin Elmer, Milan, Italy; host or cells: HEK-293
T4 sequence (P34972 whole entry): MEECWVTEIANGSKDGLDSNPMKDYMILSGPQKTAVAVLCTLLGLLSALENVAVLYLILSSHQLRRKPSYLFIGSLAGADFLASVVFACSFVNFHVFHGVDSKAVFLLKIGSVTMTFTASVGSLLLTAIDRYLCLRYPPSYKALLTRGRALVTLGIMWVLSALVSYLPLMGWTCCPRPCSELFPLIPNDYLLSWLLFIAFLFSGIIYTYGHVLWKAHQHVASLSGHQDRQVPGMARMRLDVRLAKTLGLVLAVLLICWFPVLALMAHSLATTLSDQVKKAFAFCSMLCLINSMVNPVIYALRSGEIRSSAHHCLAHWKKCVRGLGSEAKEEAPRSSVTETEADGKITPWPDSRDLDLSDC
The assay is described as follows: Competition binding assay with [3H]-CP-55,940 at CB2. The note with it: for Ki: [3H]-CP55940 displacement, HEK-293 membranes, read-out: Ki on CB2 (m ± sd); for % Displacement at max tested on CB2 (m ± sd): max tested concentration 10 µM, [3H]-CP55940. The method, then:
as §2

Assay [5] deals with T5, FAAH in rat brain membranes (Rattus norvegicus, UniProt P97612).
T5 sequence (P97612 1-579): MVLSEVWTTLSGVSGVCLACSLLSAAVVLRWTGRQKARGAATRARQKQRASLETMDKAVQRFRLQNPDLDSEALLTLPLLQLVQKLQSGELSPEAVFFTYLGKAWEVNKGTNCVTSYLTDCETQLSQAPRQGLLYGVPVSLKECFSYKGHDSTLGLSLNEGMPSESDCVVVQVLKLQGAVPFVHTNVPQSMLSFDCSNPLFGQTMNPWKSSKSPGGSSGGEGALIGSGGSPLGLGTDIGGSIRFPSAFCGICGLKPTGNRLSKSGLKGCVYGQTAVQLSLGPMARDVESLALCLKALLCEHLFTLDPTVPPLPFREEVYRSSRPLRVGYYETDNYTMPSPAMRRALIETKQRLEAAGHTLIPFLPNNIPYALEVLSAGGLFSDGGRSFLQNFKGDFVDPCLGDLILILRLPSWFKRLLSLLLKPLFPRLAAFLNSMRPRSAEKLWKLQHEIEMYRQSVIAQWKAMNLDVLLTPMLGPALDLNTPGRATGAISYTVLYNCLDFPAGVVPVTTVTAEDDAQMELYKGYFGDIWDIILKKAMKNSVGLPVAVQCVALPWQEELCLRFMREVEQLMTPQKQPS
The experiment in a line: FAAH assay, [14C]-AEA hydrolysis in rat brain membranes.

Assay [6] addresses T5, FAAH in rat brain membranes. The note with it: read-out: IC50 FAAH with 20 min Pre-incubation; cited from earlier work.
Another assay has as its target T6, Aβ42 self-aggregation (Homo sapiens, UniProt P05067).
T6 construct: pretreated Aβ42 samples (Bachem AG, Bubendorf, Switzerland); purchased Bachem AG, Bubendorf, Switzerland
The experiment in a line: Inhibition of Aβ42 self-aggregation, thioflavin T fluorescence. The format is biochemical. The settings on record: read-out: % Inhibition Aβ42 self-aggregation (±SEM). Here is the method:
Finally, in a multitarget perspective, the compounds were tested to evaluate their Aβ anti-aggregation properties.
As reported in a previously published protocol, 1,1,1,3,3,3-hexafluoro, 2-propanol pretreated Aβ42 samples (Bachem AG, Bubendorf, Switzerland) were solubilized with a CH3CN/0.3 mM Na2CO3/250 mM NaOH (48.4:48.4:3.2) mixture. Experiments were performed by incubating the peptide in 10 mM phosphate buffer (pH = 8.0) containing 10 mM NaCl, at 30 °C for 24 h (final Aβ concentration = 50 μM) with and without inhibitor (50 μM, Aβ/inhibitor = 1/1). Blanks containing the tested inhibitors were also prepared and tested. To quantify amyloid fibrils formation, the thioflavin T (ThT) fluorescence method was used. After incubation, samples were diluted to a final volume of 2.0 mL with 50 mM glycine-NaOH buffer (pH 8.5) containing 1.5 μM ThT. A 300 s-time scan of fluorescence intensity was carried out (λexc = 446 nm; λem = 490 nm, FP-6200 fluorometer, Jasco Europe), and values at plateau were averaged after subtracting the background fluorescence of 1.5 μM ThT solution. The fluorescence intensities were compared and the percent inhibition due to the presence of the inhibitor.

For the next assay, the target named is T7, hAChE (Homo sapiens, UniProt P22303).
T7 construct: purchased Sigma-Aldrich, Merck group, Milan, Italy
T7 sequence (P22303 32-614): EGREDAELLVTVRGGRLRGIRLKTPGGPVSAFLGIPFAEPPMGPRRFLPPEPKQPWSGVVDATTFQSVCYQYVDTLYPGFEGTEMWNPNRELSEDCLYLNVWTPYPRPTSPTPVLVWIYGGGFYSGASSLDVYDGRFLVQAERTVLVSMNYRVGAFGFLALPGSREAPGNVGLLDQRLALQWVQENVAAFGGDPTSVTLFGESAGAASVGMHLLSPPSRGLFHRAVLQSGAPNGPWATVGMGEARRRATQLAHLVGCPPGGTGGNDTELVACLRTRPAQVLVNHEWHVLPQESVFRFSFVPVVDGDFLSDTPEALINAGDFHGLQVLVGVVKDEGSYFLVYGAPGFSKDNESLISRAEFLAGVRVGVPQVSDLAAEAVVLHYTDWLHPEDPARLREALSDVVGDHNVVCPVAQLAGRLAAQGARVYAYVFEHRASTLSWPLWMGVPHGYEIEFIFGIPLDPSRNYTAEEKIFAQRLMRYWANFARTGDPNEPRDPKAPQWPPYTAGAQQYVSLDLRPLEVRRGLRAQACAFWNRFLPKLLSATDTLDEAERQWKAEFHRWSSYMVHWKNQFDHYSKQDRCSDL
The assay is described as follows: Stopped time assay of hAChE carbamoylation. The format is biochemical. The settings on record: determined at IC50 value.

Setting [7] is: incubation 20 min, read-out: hBuChE IC50 (±SEM).
The mark [8] stands for this setting: IC50 FAAH (m ± sd), rat brain membranes, AEA hydrolysis, without pre-incubation.
[9] abbreviates: IC50 FAAH with 20 min Pre-incubation, rat brain membranes, 20 min pre-incubation at 37 °C.
The mark [10] stands for this setting: incubation time 60 min, read-out: IC50 hBuChE (±SEM).

Where two headings read alike, the source gives them in different places.

T3 sequence (P21554 whole entry): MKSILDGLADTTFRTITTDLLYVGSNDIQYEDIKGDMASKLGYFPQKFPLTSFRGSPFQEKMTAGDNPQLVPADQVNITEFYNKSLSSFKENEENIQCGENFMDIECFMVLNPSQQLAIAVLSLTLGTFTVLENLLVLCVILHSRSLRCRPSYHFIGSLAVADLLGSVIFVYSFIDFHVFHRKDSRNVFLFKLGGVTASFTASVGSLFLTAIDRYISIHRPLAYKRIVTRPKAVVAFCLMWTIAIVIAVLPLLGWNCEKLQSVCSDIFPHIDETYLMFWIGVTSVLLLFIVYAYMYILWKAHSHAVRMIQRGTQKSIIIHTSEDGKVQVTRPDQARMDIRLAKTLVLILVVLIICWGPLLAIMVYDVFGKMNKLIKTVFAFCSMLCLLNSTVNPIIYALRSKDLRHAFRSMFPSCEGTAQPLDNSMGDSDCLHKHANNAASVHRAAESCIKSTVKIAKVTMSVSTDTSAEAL
T1 sequence (P22303 32-614): as the sequence (P22303 32-614) above
T6 sequence (P05067 672-713 limits assumed): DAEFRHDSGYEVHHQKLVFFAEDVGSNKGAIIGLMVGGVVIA

`CCCCCCCNC(=O)COc1cccc(CN(C)CCCOc2ccc3ccc(=O)oc3c2)c1` [Compound 5, N-Heptyl-2-(3-((methyl(3-((2-oxo-2H-chromen-7-yl)oxy)propyl)amino)methyl)phenoxy)acetamide]: the inhibition (as a rule, the share of the control response that was lost under treatment) at 40 µM in assay [1] (incubation 20 min) turned out to be 13.6 ± 5.1%. The IC50 (usually the point on the concentration scale where inhibition reaches its midpoint) in assay [2] (setting [7]) was 182 ± 28 µM; in assay [5], more than 1000 µM. The Ki in assay [3] and in assay [4] was more than 10 µM throughout. In addition, the “% Displacement at max tested on CB1 (m ± sd)” value in assay [3] was 10 (35.57 ± 0.43) %. In addition, the “% Displacement at max tested on CB2 (m ± sd)” value in assay [4] is 10 (41.41 ± 0.87) %.
Take `CCCCCCCNC(=O)Oc1cccc(CN(C)CCCOc2ccc3ccc(=O)oc3c2)c1` [Compound 1]: the IC50 in assay [6] is 0.029 ± 0.001 µM.
As to `CN(CCCOc1ccc2ccc(=O)oc2c1)Cc1cccc(OCC(=O)NC2CCCCC2)c1` [Compound 7, N-Cyclohexyl-2-(3-((methyl(3-((2-oxo-2H-chromen-7-yl)oxy)propyl)amino)methyl)phenoxy)-acetamide], the inhibition at 40 µM in assay [1] (incubation 20 min) stood at 34 ± 3.2%. In assay [2] (setting [7]), the IC50 is 12.8 ± 2.1 µM. The inhibition at 50 µM at Aβ42 self-aggregation amounted to 13.5 ± 5%. Further, in assay [3], the Ki (usually a dissociation constant, usually derived from enzyme kinetics or from competition with a known ligand) was more than 10 µM and the “% Displacement at max tested on CB1 (m ± sd)” value is 10 (39.62 ± 10.48) %. In assay [4], the Ki is more than 10 µM and the “% Displacement at max tested on CB2 (m ± sd)” value is reported as 10 (14.3 ±3.83) %. For the same compound, in assay [5], the IC50 is more than 1000 µM.
`CN(CCCOc1ccc2ccc(=O)oc2c1)Cc1cccc(OC(=O)NC2CCCC2)c1` [Compound 2, 3-((Methyl(3-((2-oxo-2H-chromen-7-yl)oxy)propyl)amino)methyl)phenyl cyclopentylcarbamate]: the IC50 in assay [1] (incubation time 60 min, read-out: IC50 hAChE (±SEM)) amounted to 0.521 ± 0.014 µM; in assay [2] (incubation time 45 min, read-out: IC50 hBuChE (±SEM)), 0.00842 ± 0.00013 µM; in assay [5] (setting [8]), 6.09 ± 1.55 µM; in assay [5] (setting [9]) it was 2.53 ± 0.55 µM. Further, at Aβ42 self-aggregation, the inhibition at 50 µM turned out to be 22.9 ± 1.3%. Besides, the “pseudo-first order kobs of hAChE carbamoylation” value at hAChE came out at 0.038 min⁻¹.
Consider `CN(CCCOc1ccc2ccc(=O)oc2c1)Cc1cccc(OCC(=O)NC2CCCC2)c1` [Compound 6, N-Cyclopentyl-2-(3-((methyl(3-((2-oxo-2H-chromen-7yl)oxy)propyl)amino)methyl)phenoxy)-acetamide], for which the inhibition at 40 µM in assay [1] (incubation 20 min) came to 41.7 ± 0.5%. In addition, the IC50 in assay [1] (incubation 20 min, read-out: IC50 hAChE) is 59.4 µM; in assay [2] (setting [7]), 11.6 ± 0.8 µM; in assay [5] it was more than 1000 µM. The inhibition at 50 µM on Aβ42 self-aggregation stood at 20.3 ± 1.9%. Also, the Ki in assay [3] and in assay [4] was more than 10 µM each time. Besides, in assay [3], the “% Displacement at max tested on CB1 (m ± sd)” value is recorded as 10 (35.75 ± 0.65) %. In addition, in assay [4], the “% Displacement at max tested on CB2 (m ± sd)” value is reported as 10 (48.33 ± 1.73) %.
As for `CN(CCCOc1ccc2ccc(=O)oc2c1)Cc1cccc(OC(=O)Nc2ccc3ccccc3c2)c1` [Compound 4, 3-((Methyl(3-((2-oxo-2H-chromen-7-yl)oxy)propyl)amino)methyl)phenyl naphthalen-2-ylcarbamate], the IC50 was 0.002 ± 0.0002 µM in assay [2] (setting [10]), 1.58 ± 0.26 µM in assay [5] (setting [8]) and 0.63 ± 0.08 µM in assay [5] (setting [9]). In addition, the “difference in IC50 values hAChE vs hBuChE (selectivity)” value in assay [2] (hBuChE over hAChE) is listed as 100 fold. In addition, on Aβ42 self-aggregation, the inhibition at 50 µM worked out at 13.9 ± 3.8%.
Turning to `CN(CCCOc1ccc2ccc(=O)oc2c1)Cc1cccc(OC(=O)NC2CCCCC2)c1` [Compound 3, 3-((Methyl(3-((2-oxo-2H-chromen-7-yl)oxy)propyl)amino)methyl)phenyl cyclohexylcarbamate], the IC50 in assay [1] (incubation time 90 min, read-out: IC50 hAChE (±SEM)) was 0.104 ± 0.021 µM; in assay [2] (setting [10]), 0.0349 ± 0.0042 µM; in assay [5] (setting [8]), 2.55 ± 0.33 µM; in assay [5] (setting [9]), 1.33 ± 0.28 µM. Besides, the inhibition at 50 µM at Aβ42 self-aggregation was found to be 18.9 ± 2.1%.
